The subject of experiment [1] is pancreas cancer cell line T3M-4. As to the kind of experiment: Amino acid concentration in culture medium of pancreas cancer cell line with LAT1 inhibitor added. The class given is cell-based. As to conditions: T3M-4 culture, inhibitor added at each concentration, medium collected 0-97 hrs (FIG. 3b). The procedure: (§1) Each of the cancer cell lines 44As3-11 (gastric cancer cell line), T3M-4 (pancreas cancer cell line), and MIAPaCa-2 (pancreas cancer cell line) was used. By using a 6 well plate, culture was performed at 37° C. with 5×10^4 cells in 3 mL (10% FBS, L-Glu+PS in RPMI1640). The culture medium was collected at 0, 24, 48, 72, and 97 hrs and centrifuged at 1,000 rpm. The supernatant (1.0 mL) was then stored in a deep freezer (−80° C.) during a period until determination. Eight kinds of amino acids (including phenylalanine in addition to the aforementioned histidine, isoleucine, leucine, methionine, tryptophan, valine, and tyrosine) were measured by mass analysis. Each culture was performed in triplet and, by measuring the sample, the concentration of each amino acid was represented as mean value±standard deviation, and then compared among the groups. Furthermore, after adding an anticancer agent (O-(5-amino-2-phenylbenzoxazol-7-yl)methyl-3,5-dichloro-L-tyrosine) at each concentration to the culture medium, the property of inhibiting the decrease in amino acid concentration in the culture medium was observed.
(§2) 3) As for the statistical processing, Mann-Whitney U test was used for comparison between two groups, and those having a risk ratio of 0.05 or less were determined to be a significant difference.

The target in experiment [2] is T1, LAT1 (Homo sapiens, UniProt Q01650).
T1 construct: from tissue; host or cells: Solid tumours (pancreas, colon, gall bladder cancer with metastases) in living patients
Nature of the experiment: Free amino acid concentration in blood serum of cancer patients at BSC stage administered inhibitor agent. It counts as in vivo. Here is the method: Immediately after collecting blood from patients having gastric cancer [100 samples, average age (lowest value-highest value) 66.1 (31 to 89 years old), sex ratio 72:28], pancreas cancer [27, 70.3 (56 to 81) 13:14], or bile duct cancer [6, 70.5 (68 to 75) 5:1] and healthy control with no cancer [12, 50.8 (29 to 73) 11:1], blood serum was isolated and stored in a deep freezer (−80° C.) during a period until determination. The concentration of seven types of amino acids (histidine, isoleucine, leucine, methionine, tryptophan, valine, and tyrosine) was measured by mass analysis, and the measurement result was compared to the value obtained from blood of a healthy control. The concentration of each amino acid was represented as relative value of each case, with the mean value from the healthy control being 100%. The percentage was compared between the cancer patient and healthy control.
A predetermined clinical test (test and experiment) was registered with an administration bureau, and after obtaining an approval of the institutional review board (IRB) of a site management organization, patients were selected and blood serum for analysis was collected, stored, and analyzed. The patient as a subject carried solid tumors for which standard treatments for cancer are ineffective or are intolerable, and they were in a state generally referred to as a BSC stage. […]

In experiment [3] the test system is gastric cancer cell line 44As3-11. As to the kind of experiment: Amino acid concentration in culture medium of gastric cancer cell line with LAT1 inhibitor added. It counts as cell-based. Conditions: 44As3-11 culture, inhibitor added at each concentration, medium collected 0-97 hrs (FIG. 2b). The procedure: as §1, §2

T1 sequence (Q01650 whole entry): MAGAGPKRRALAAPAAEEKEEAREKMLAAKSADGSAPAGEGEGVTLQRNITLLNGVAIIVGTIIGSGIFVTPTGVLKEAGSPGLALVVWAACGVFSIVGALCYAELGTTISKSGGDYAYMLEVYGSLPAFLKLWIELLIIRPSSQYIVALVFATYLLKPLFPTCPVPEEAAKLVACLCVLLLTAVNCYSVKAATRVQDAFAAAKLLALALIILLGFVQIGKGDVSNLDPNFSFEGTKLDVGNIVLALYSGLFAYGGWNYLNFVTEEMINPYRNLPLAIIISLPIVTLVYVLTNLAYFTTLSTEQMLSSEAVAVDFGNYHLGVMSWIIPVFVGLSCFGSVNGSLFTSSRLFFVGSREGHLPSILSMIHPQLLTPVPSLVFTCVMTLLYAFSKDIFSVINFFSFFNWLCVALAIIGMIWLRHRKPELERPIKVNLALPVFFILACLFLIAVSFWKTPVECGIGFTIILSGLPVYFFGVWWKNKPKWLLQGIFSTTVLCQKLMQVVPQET
T1 sequence (P08195 102-630 partner): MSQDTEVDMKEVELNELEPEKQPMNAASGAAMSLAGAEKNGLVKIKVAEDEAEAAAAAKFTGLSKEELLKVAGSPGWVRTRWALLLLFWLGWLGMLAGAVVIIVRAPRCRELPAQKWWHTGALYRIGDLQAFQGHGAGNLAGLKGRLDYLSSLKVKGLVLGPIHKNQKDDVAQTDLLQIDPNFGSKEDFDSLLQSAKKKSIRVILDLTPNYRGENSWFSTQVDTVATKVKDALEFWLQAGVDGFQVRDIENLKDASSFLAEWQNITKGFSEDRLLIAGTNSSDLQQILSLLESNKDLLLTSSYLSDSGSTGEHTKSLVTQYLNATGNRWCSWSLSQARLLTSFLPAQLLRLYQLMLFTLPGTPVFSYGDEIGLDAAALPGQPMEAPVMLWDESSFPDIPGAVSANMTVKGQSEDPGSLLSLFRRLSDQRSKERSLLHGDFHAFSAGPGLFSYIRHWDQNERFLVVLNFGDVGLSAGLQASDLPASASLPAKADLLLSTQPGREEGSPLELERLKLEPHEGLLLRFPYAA

For the compound `Nc1cc(COc2c(Cl)cc(C[C@H](N)C(=O)O)cc2Cl)c2oc(-c3ccccc3)nc2c1` [LAT1 inhibitor, O-(5-amino-2-phenylbenzoxazol-7-yl)methyl-3,5-dichloro-L-tyrosine], the “inhibition of the decrease in concentration of eight amino acids in the culture medium” value in experiment [1] and in experiment [3] was “property of inhibiting amino acid decrease in a pharmaceutical concentration dependent manner was shown” each time. Also, in experiment [2] (patients at BSC stage, 12 mg/m^2/day, 25.5 hours after start of single administration (FIGS. 4a, 4b)), the “concentration of each amino acid in blood serum after single administration versus before administration” value was “higher than the value before the administration”. In addition, the “relative blood concentration of eight amino acids before versus after single administration” value in experiment [2] (subjects 102 and 104, healthy control mean = 100, Student's t test (FIG. 4c)) is “significant difference between cases before and after the single administration”.

The values are drawn from patent publication US20160370379A1, “BLOOD-BASED BIOMARKER FOR CANCER” (J-PHARMA CO., LTD., priority 2014, published 2016).
